This passage reports inhibition, IC50 and Activity results from ChEMBL document CHEMBL4400561, “Isolation, structural elucidation, and insights into the anti-inflammatory effects of triterpene saponins from the leaves of Stauntonia hexaphylla” (Bioorg Med Chem Lett, 2019).

Series [1] concerns RAW264.7. Briefly: Anti-inflammatory activity in mouse LPS-stimulated RAW264.7 cells assessed as decrease in PGE2 levels at preincubated for 1 hr followed by LPS-stimulation and measured after 12 hrs by ELISA. It is filed as functional, cell-based.
For series [2], the system named is RAW264.7. Put plainly: Anti-inflammatory activity in mouse LPS-stimulated RAW264.7 cells assessed as decrease in IL6 levels preincubated for 1 hr followed by LPS-stimulation and measured after 12 hrs by ELISA. It is filed as functional, cell-based.
Series [3] concerns RAW264.7. Put plainly: Anti-inflammatory activity in mouse LPS-stimulated RAW264.7 cells assessed as decrease in iNOS protein levels preincubated for 1 hr followed by LPS-stimulation and measured after 16 hrs by Western blot analysis. It is filed as functional, cell-based.
Series [4] concerns RAW264.7. Put plainly: Anti-inflammatory activity in mouse RAW264.7 cells assessed as inhibition of LPS-induced NO production preincubated for 1 hr followed by LPS-stimulation and measured after 18 hrs by Griess reagent-based assay. It is filed as functional, cell-based.
Series [5] relates to RAW264.7. Put plainly: Anti-inflammatory activity in mouse LPS-stimulated RAW264.7 cells assessed as decrease in IL1beta levels preincubated for 1 hr followed by LPS-stimulation and measured after 12 hrs by ELISA. Format: functional, cell-based.
The test system of series [6] is RAW264.7. Put plainly: Anti-inflammatory activity in mouse LPS-stimulated RAW264.7 cells assessed as decrease in TNFalpha levels preincubated for 1 hr followed by LPS-stimulation and measured after 12 hrs by ELISA. Format: functional, cell-based.
Series [7] has as its system RAW264.7. Put plainly: Cytotoxicity against mouse RAW264.7 cells at anti-inflammatory IC50 after 19 hrs by MTT assay. Format: cell-based. The settings on record: raw264.7, 19 h.
The test system of series [8] is RAW264.7. Briefly: Anti-inflammatory activity in mouse LPS-stimulated RAW264.7 cells assessed as decrease in COX2 protein levels preincubated for 1 hr followed by LPS-stimulation and measured after 16 hrs by Western blot analysis. Format: functional, cell-based.

In the case of `C[C@@H]1O[C@@H](O[C@H]2[C@H](O[C@H]3CC[C@]4(C)[C@H]5CC=C6[C@@H]7CC(C)(C)CC[C@]7(C(=O)O)CC[C@@]6(C)[C@]5(C)CC[C@H]4C3(C)C)OC[C@H](O[C@@H]3O[C@H](CO)[C@@H](O)[C@H](O)[C@H]3O)[C@@H]2O)[C@H](O)[C@H](O)[C@H]1O` [HEDERACOLCHISIDE A1], the inhibition entry in series [1], in series [2], in series [3], in series [5], in series [6] and in series [8] was “Dose-dependent effect” throughout. Further, the IC50 in series [4] came out at 590 nM. The Activity result in series [7] is “Non-Toxic”.
Take `CC1(C)CC[C@]2(C(=O)O)CC[C@]3(C)C(=CC[C@@H]4[C@@]5(C)CC[C@H](O[C@@H]6OC[C@H](O)[C@H](O)[C@H]6O[C@@H]6O[C@H](CO)[C@@H](O)[C@H](O)[C@H]6O)C(C)(C)[C@@H]5CC[C@]43C)[C@@H]2C1`: the inhibition entry in series [1], in series [2], in series [3], in series [5], in series [6] and in series [8] was “Dose-dependent effect” throughout. For the same molecule, the IC50 in series [4] amounted to 1820 nM. For the same molecule, in series [7], the Activity result is given as “Non-Toxic”.
